We go through 30 compounds from patent publication US20230416228A1 (Forkhead Biotherapeutics, Inc., priority 2020, published 2023).

This experiment addresses T1, human FOXO1 (constitutively active form Thr24Ala, Ser256Ala, Ser319Ala) (Homo sapiens, UniProt Q12778, S256A/S319A/T24A).
T1 construct: expressed in transfected cells; host or cells: HEK293 cells transfected with pcDNA3.1 plasmid
Briefly: FOXO1 inhibitor activity assay: cell-based transcriptional (luciferase) reporter assay in HEK293 cells. Conditions: HEK293 cells transfected with insulin response element firefly luciferase reporter, FOXO1 and Renilla luciferase; 10-point dose response 50 μM to 2.5 nM; 24 hours. As to the method: The inhibitory activities of compounds on FOXO1 were determined by a cell-based transcriptional reporter assay. HEK293 cells were plated onto either 384-well poly-D-lysine coated plates (at 7500 cells per well) or 96-well plates (at 20000 cells per well) in low glucose Eagle's Minimum Essential Medium (EMEM) containing 1% fetal bovine serum, and incubated overnight at 37° C. and 5% CO2. […] Duplicate wells were included for each treatment condition. Cells were incubated for 24 hours at 37° C. and 5% CO2. Luciferase activities in each well were measured using Dual-Glog Luciferase Assay System (Promega) according to manufacturer's protocol and an Envision plate reader suitable for luminescence detection. Firefly luciferase activity was divided by Renilla luciferase activity to calculate a ratio for each well. The ratio in wells containing cells transfected with all 3 plasmids listed above and receiving only DMSO without compound addition was set to 100%. The ratio in wells containing cells transfected with plasmid (1), plasmid (3), and pcDNA3.1 containing the open reading frame of red fluorescent protein (instead of human FOXO1) and treated with DMSO was set to 0%. The ratio in each well receiving compound treatment was normalized and expressed as a percentage. Data were fit by 4-parameter logistic regression to determine IC50 and maximal inhibition values. Each compound was tested in a minimum of 2 independent experiments.
For orientation: Reporter assays use an easily measured gene product as a stand-in for the process of interest.

T1 sequence (Q12778 whole entry T24A/S256A/S319A): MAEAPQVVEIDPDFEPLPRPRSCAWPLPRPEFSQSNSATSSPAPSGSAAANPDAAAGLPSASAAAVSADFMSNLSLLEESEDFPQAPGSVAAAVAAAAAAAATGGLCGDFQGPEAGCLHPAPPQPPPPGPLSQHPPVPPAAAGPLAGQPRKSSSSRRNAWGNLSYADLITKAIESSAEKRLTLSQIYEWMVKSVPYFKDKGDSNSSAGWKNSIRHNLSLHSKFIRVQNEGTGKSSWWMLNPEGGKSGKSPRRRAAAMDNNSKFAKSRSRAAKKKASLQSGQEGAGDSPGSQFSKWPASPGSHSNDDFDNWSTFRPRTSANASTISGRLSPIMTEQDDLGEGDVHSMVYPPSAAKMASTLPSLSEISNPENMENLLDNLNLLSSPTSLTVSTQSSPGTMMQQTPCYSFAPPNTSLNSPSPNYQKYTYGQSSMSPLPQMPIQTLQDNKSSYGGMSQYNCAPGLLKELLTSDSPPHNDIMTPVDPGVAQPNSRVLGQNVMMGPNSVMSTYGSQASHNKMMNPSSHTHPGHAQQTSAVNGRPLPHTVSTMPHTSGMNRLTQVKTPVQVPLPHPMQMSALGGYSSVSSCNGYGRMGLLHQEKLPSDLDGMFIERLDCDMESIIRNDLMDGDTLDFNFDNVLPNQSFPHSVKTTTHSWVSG

Consider `CC1CN(c2ccc(C(=O)Nc3cc(-c4nc5ccccc5[nH]4)n(C)n3)cn2)CC(CO)O1` (single isomer, unassigned) [Compound A-292, N-[5-(1H-benzimidazol-2-yl)-1-methyl-pyrazol-3-yl]-6-[2-(hydroxymethyl)-6-methyl-morpholin-4-yl]pyridine-3-carboxamide], for which the IC50 was < 100 nM.
As to `CC1CN(c2ccc(C(=O)Nc3cc(-c4nc5ccccc5[nH]4)n(C)n3)cn2)CC(CO)O1` (single isomer, unassigned) [Compound A-293, N-[5-(1H-benzimidazol-2-yl)-1-methyl-pyrazol-3-yl]-6-[2-(hydroxymethyl)-6-methyl-morpholin-4-yl]pyridine-3-carboxamide], the IC50 was 100 to 300 nM.
As to `CC1CN(c2ccc(C(=O)Nc3cc(-c4nc5ccccc5[nH]4)n(C)n3)cn2)CC(CO)O1` (single isomer, unassigned) [Compound A-294, N-[5-(1H-benzimidazol-2-yl)-1-methyl-pyrazol-3-yl]-6-[2-(hydroxymethyl)-6-methyl-morpholin-4-yl]pyridine-3-carboxamide], the half-inhibitory concentration (IC50) was < 100 nM.
With `CC1CN(c2ccc(C(=O)Nc3cc(-c4nc5ccccc5[nH]4)n(C)n3)cn2)CC(CO)O1` (single isomer, unassigned) [Compound A-295, N-[5-(1H-benzimidazol-2-yl)-1-methyl-pyrazol-3-yl]-6-[2-(hydroxymethyl)-6-methyl-morpholin-4-yl]pyridine-3-carboxamide], the half-inhibitory concentration (IC50) is < 100 nM.
`Cn1nc(NC(=O)c2ccc(N3CCC(O)C3)nc2)cc1-c1nc2ccccc2[nH]1` (stereo in doubt) [Compound A-227, N-[5-(1H-benzimidazol-2-yl)-1-methyl-pyrazol-3-yl]-6-[(3R)-3-hydroxy-pyrrolidin-1-yl]pyridine-3-carboxamide]: the IC50 was in the range of 300 to 1000 nM.
Regarding `CC(=O)N1CCN(c2ccc(C(=O)Nc3cc(-c4nc5ccccc5[nH]4)n(C)n3)cn2)CC1` [A-231, 6-(4-acetylpiperazin-1-yl)-N-[5-(1H-benzimidazol-2-yl)-1-methyl-pyrazol-3-yl]pyridine-3-carboxamide], the IC50 was < 100 nM.
As to `CC(O)CN1CCN(c2ccc(C(=O)Nc3cc(-c4nc5ccccc5[nH]4)n(C)n3)cc2)CC1` (stereo not drawn) [A-257, N-[5-(1H-benzimidazol-2-yl)-1-methyl-pyrazol-3-yl]-4-[4-(2-hydroxypropyl)piperazin-1-yl]benzamide], the 50% inhibitory concentration (IC50) is < 100 nM.
As for `COc1ccc(C(=O)Nc2cc(C(=O)NC3COC3)[nH]n2)cc1Cl` [Compound A-16, 3-[(3-chloro-4-methoxy-benzoyl)amino]-N-(oxetan-3-yl)-1H-pyrazole-5-carboxamide], the IC50 was > 1000 nM.
In the case of `CN1CCN(c2ccc(C(=O)Nc3cc(-c4nc5ccccc5[nH]4)[nH]n3)cn2)CC1` [Compound A-21, N-[5-(1H-benzimidazol-2-yl)-1H-pyrazol-3-yl]-6-(4-methyl-piperazin-1-yl)pyridine-3-carboxamide], the 50% inhibitory concentration (IC50) was < 100 nM.
Turning to `COCCOc1ccc(C(=O)Nc2cc(-c3nc4ccccc4[nH]3)[nH]n2)cc1Cl` [Compound A-29, N-[5-(1H-benzimidazol-2-yl)-1H-pyrazol-3-yl]-3-chloro-4-(2-methoxyethoxy)benzamide], the half-maximal inhibitory concentration (IC50) was < 100 nM.
Regarding `COc1ccc(C(=O)Nc2cc(-c3nc4ccccc4[nH]3)no2)cc1Cl` [Compound A-30, N-[3-(1H-benzimidazol-2-yl)isoxazol-5-yl]-3-chloro-4-methoxy-benzamide], the half-inhibitory concentration (IC50) was > 1000 nM.
Compound `O=C(Nc1cc(-c2nc3ccccc3[nH]2)[nH]n1)c1ccc(OCCN2CCOCC2)c(Cl)c1` [Compound A-33, N-[5-(1H-benzimidazol-2-yl)-1H-pyrazol-3-yl]-3-chloro-4-(2-morpholinoethoxy)benzamide] showed an IC50 of 100 to 300 nM.
For the compound `O=C(Nc1cc(-c2nc3ccccc3[nH]2)[nH]n1)c1ccc(N2CCC(O)CC2)cc1` [Compound A-36, N-[5-(1H-benzimidazol-2-yl)-1H-pyrazol-3-yl]-4-(4-hydroxy-1-piperidyl)-benzamide], the IC50 was < 100 nM.
For the compound `COCCNc1ccc(C(=O)Nc2cc(-c3nc4ccccc4[nH]3)[nH]n2)cc1Cl` [Compound A-39, N-[5-(1H-benzimidazol-2-yl)-1H-pyrazol-3-yl]-3-chloro-4-(2-methoxyethylamino)benzamide], the IC50 was < 100 nM.
Regarding `O=C(Nc1cc(-c2nc3ccccc3[nH]2)[nH]n1)c1ccc(N2CC[C@@H](O)C2)cc1` [Compound A-40, N-[5-(1H-benzimidazol-2-yl)-1H-pyrazol-3-yl]-4-[(3R)-3-hydroxypyrrolidin-1-yl]benzamide], the IC50 was < 100 nM.
For the compound `O=C(Nc1cc(-c2nc3ccccc3[nH]2)[nH]n1)c1ccc(N2CCOCC2)nc1` [Compound A-41, N-[5-(1H-benzimidazol-2-yl)-1H-pyrazol-3-yl]-6-morpholino-pyridine-3-carboxamide], the 50% inhibitory concentration (IC50) is < 100 nM.
On to `O=C(Nc1cc(-c2nc3ccccc3[nH]2)[nH]n1)c1ccc(N2CCC(O)CC2)nc1` [Compound A-42, N-[5-(1H-benzimidazol-2-yl)-1H-pyrazol-3-yl]-6-(4-hydroxy-1-piperidyl)pyridine-3-carboxamide], for which the half-maximal inhibitory concentration (IC50) lay within 100 to 300 nM.
Regarding `O=C(Nc1cc(-c2nc3ccccc3[nH]2)[nH]n1)c1ccc(N2CC[C@H](O)C2)cc1` [Compound A-43, N-[5-(1H-benzimidazol-2-yl)-1H-pyrazol-3-yl]-4-[(3S)-3-hydroxy-pyrrolidin-1-yl]benzamide], the half-inhibitory concentration (IC50) was < 100 nM.
Regarding `O=C(Nc1cc(-c2nc3ccccc3[nH]2)[nH]n1)c1ccc(N2CCC3(CCCO3)CC2)nc1` [Compound A-44, N-[5-(1H-benzimidazol-2-yl)-1H-pyrazol-3-yl]-6-(1-oxa-8-azaspiro[4.5]decan-8-yl)pyridine-3-carboxamide], the half-inhibitory concentration (IC50) is < 100 nM.
On to `O=C(Nc1cc(-c2nc3ccccc3[nH]2)[nH]n1)c1ccc(N2CC3(COC3)C2)nc1` [Compound A-45, N-[5-(1H-benzimidazol-2-yl)-1H-pyrazol-3-yl]-6-(2-oxa-6-azaspiro[3.3]heptan-6-yl)pyridine-3-carboxamide], for which the IC50 was > 1000 nM.
As for `CN(C)C1CCN(c2ccc(C(=O)Nc3cc(-c4nc5ccccc5[nH]4)[nH]n3)cn2)CC1` [Compound A-46, N-[5-(1H-benzimidazol-2-yl)-1H-pyrazol-3-yl]-6-[4-(dimethylamino)-1-piperidyl]pyridine-3-carboxamide], the IC50 is < 100 nM.
Consider `CC(C)(O)C1CCN(c2ccc(C(=O)Nc3cc(-c4nc5ccccc5[nH]4)[nH]n3)cn2)CC1` [Compound A-47, N-[5-(1H-benzimidazol-2-yl)-1H-pyrazol-3-yl]-6-[4-(1-hydroxy-1-methyl-ethyl)-1-piperidyl]pyridine-3-carboxamide], for which the half-inhibitory concentration (IC50) is < 100 nM.
Take `O=C(Nc1cc(-c2nc3ccccc3[nH]2)[nH]n1)c1ccc(N2CCC[C@H]2C(=O)O)nc1` [Compound A-48, (2S)-1-[5-[[5-(1H-benzimidazol-2-yl)-1H-pyrazol-3-yl]carbamoyl]-2-pyridyl]pyrrolidine-2-carboxylic acid]: the IC50 is > 1000 nM.
`O=C(Nc1cc(-c2nc3ccccc3[nH]2)[nH]n1)c1ccc(N2CCS(=O)(=O)CC2)nc1` [Compound A-49, N-[5-(1H-benzimidazol-2-yl)-1H-pyrazol-3-yl]-6-(1,1-dioxo-1,4-thiazinan-4-yl)pyridine-3-carboxamide] gave a half-maximal inhibitory concentration (IC50) of 300 to 1000 nM.
Take `O=C(Nc1cc(-c2nc3ccccc3[nH]2)[nH]n1)c1ccc(OCCO)c(Cl)c1` [Compound A-50, N-[5-(1H-benzimidazol-2-yl)-1H-pyrazol-3-yl]-3-chloro-4-(2-hydroxy-ethoxy)benzamide]: the concentration for half-maximal inhibition (IC50) was < 100 nM.
As to `O=C(Nc1cc(-c2nc3ccccc3[nH]2)[nH]n1)c1ccc(N2CCC(C(=O)O)CC2)nc1` [Compound A-51, ammonium 1-[5-[[5-(1H-benzimidazol-2-yl)-1H-pyrazol-3-yl]carbamoyl]-2-pyridyl]piperidine-4-carboxylate], the IC50 was > 1000 nM.
Compound `O=C(Nc1cc(-c2nc3ccccc3[nH]2)[nH]n1)c1ccc(N2CCC[C@H]2CO)nc1` [Compound A-52, N-[5-(1H-benzimidazol-2-yl)-1H-pyrazol-3-yl]-6-[(2S)-2-(hydroxymethyl)-pyrrolidin-1-yl]pyridine-3-carboxamide] gave an IC50 of 100 to 300 nM.
For the compound `COCCCOc1ccc(C(=O)Nc2cc(-c3nc4ccccc4[nH]3)[nH]n2)cc1Cl` [Compound A-53, N-[5-(1H-benzimidazol-2-yl)-1H-pyrazol-3-yl]-3-chloro-4-(3-methoxy-propoxy)benzamide], the half-maximal inhibitory concentration (IC50) is < 100 nM.
Take `O=C(Nc1cc(-c2nc3ccccc3[nH]2)[nH]n1)c1ccc(N2CC[C@H](O)C2)nc1` [Compound A-54, N-[5-(1H-benzimidazol-2-yl)-1H-pyrazol-3-yl]-6-[(3S)-3-hydroxy-pyrrolidin-1-yl]pyridine-3-carboxamide]: the IC50 is 300 to 1000 nM.
Consider `O=C(Nc1cc(-c2nc3ccccc3[nH]2)[nH]n1)c1ccc(N2CC[C@@H](O)C2)nc1` [Compound A-55, N-[5-(1H-benzimidazol-2-yl)-1H-pyrazol-3-yl]-6-[(3R)-3-hydroxypyrrolidin-1-yl]pyridine-3-carboxamide], for which the IC50 is 300 to 1000 nM.

One may read the IC50 as the midpoint of a concentration-inhibition curve. Higher therefore signals weaker potency in that assay.
